From US10059701B2 (Merck Patent GmbH, priority 2015, dated 2018) come the findings set out here.

Where only a bound is given, the exact number is not on record here.

One test concerns the target T1, IRAK1 (Homo sapiens, UniProt P51617).
T1 construct: His-TEV-IRAK1 (194-712); His (N); TEV cleavage site (N)
Nature of the test: IRAK1 enzymatic assay (ADP-Glo luminescence). The class given is biochemical. The note with it: purified human recombinant His-TEV-IRAK1 (194-712). Put shortly:
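Luminescent ADP-Glo read-out of ATP turnover by purified His-TEV-IRAK1 (194-712) at 0.3 μg/ml after a 2-hour RT reaction. Compounds, serially diluted from 10 μM to 0.5 nM, were preincubated with enzyme 15 minutes in Hepes pH 7.0 buffer with MgCl2, DTT, EGTA and Triton X-100.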
A general note: ADP-Glo turns the ADP formed in a reaction into a luminescent signal.

The target of the next test is T2, IRAK4 (Homo sapiens, UniProt Q9NWZ3).
T2 construct: His-TEV-IRAK4 (1-460); His (N); TEV cleavage site (N)
T2 sequence (Q9NWZ3 1-460): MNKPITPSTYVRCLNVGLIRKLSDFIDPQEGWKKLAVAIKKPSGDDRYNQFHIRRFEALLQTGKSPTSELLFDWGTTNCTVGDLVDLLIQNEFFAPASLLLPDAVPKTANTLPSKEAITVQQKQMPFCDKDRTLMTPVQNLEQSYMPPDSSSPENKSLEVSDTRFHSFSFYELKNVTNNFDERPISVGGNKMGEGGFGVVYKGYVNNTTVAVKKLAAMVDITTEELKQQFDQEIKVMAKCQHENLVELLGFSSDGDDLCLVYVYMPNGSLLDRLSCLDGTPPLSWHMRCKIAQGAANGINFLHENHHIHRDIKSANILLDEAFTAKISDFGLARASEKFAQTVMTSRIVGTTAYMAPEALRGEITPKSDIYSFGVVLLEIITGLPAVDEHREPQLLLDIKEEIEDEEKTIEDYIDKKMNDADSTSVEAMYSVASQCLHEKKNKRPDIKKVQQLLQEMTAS
Briefly: IRAK4 enzymatic assay (ADP-Glo luminescence). The class given is biochemical. The note with it: purified human recombinant His-TEV-IRAK4 (1-460), ATP 2 μM. Summed up: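 ADP-Glo luminescence read-out after a 2 h RT kinase reaction with 2 μM ATP and 300 nM biotinylated STK1 peptide. Enzyme (His-TEV-IRAK4 1-460, 0.3 μg/ml) first incubated 15 min with serially diluted compounds (10 μM–0.5 nM) in 50 mM Hepes pH 7.0, 10 mM MgCl2, 5 mM MnCl2.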

T1 sequence (P51617 194-712): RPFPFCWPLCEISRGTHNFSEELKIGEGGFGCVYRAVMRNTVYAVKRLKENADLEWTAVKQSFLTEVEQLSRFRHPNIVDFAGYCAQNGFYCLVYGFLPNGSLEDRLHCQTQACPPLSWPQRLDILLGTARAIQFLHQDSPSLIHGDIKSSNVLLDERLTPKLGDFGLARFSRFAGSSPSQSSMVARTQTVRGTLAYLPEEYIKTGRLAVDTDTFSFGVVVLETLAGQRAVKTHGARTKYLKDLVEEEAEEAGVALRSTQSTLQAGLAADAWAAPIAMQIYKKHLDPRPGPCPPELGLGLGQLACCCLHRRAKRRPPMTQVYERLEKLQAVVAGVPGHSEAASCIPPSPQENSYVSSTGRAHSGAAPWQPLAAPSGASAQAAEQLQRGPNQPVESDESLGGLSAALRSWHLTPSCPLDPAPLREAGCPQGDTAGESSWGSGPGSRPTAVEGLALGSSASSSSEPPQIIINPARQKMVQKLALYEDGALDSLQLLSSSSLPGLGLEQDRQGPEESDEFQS

What is called IC50 is the concentration needed to halve the response being measured. With `O=C(/N=c1\[nH]c2cc(N3CC4CCC(O4)C3=O)ccc2n1CCCO)c1cccc(C(F)(F)F)c1` (stereo not shown) [Example 217, (E)-N-(1-(3-hydroxypropyl)-5-(2-oxo-8-oxa-3-azabicyclo[3.2.1]octan-3-yl)-1H-benzo[d]imidazol-2(3H)-ylidene)-3-(trifluoromethyl)benzamide], the IC50 on IRAK1 is 0.1 to 1 µM; at IRAK4 it was ≤ 0.1 µM.

Take `CC1(C)CCOC(=O)N1c1ccc2c(c1)[nH]/c(=N\C(=O)c1cccc(C(F)F)c1)n2CCCO` [Example 218, (E)-3-(difluoromethyl)-N-(5-(4,4-dimethyl-2-oxo-1,3-oxazinan-3-yl)-1-(3-hydroxypropyl)-1H-benzo[d]imidazol-2(3H)-ylidene)benzamide]: the IC50 on IRAK1 and on IRAK4 was ≤ 0.1 µM in each case.

Turning to `CC1(C)CCOC(=O)N1c1ccc2[nH]c(=NC(=O)c3cccc(C(F)F)c3)n(CCCO)c2c1` [Example 219], the concentration for half-maximal inhibition (IC50) is 0.1 to 1 µM on IRAK1 and ≤ 0.1 µM at IRAK4.

For `CC1(C)CCOC(=O)N1c1ccc2c(c1)[nH]/c(=N\C(=O)c1cccc(C(F)(F)F)c1)n2CCCO` [Example 220, (E)-3-(trifluoromethyl)-N-(5-(4,4-dimethyl-2-oxo-1,3-oxazinan-3-yl)-1-(3-hydroxypropyl)-1H-benzo[d]imidazol-2(3H)-ylidene)benzamide], the concentration for half-maximal inhibition (IC50) at IRAK1 and on IRAK4 was ≤ 0.1 µM each time.

Regarding `CC1(C)CCOC(=O)N1c1ccc2[nH]c(=NC(=O)c3cccc(C(F)(F)F)c3)n(CCCO)c2c1` [Example 221], the IC50 at IRAK1 is 0.1 to 1 µM; on IRAK4, ≤ 0.1 µM.

As for `CC1(C)OCCN(c2ccc3c(c2)[nH]/c(=N\C(=O)c2cccc(C(F)F)c2)n3CCCO)C1=O` [Example 222, (E)-3-(difluoromethyl)-N-(5-(2,2-dimethyl-3-oxomorpholino)-1-(3-hydroxypropyl)-1H-benzo[d]imidazol-2(3H)-ylidene)benzamide], the IC50 is 0.1 to 1 µM on IRAK1 and ≤ 0.1 µM on IRAK4.

Take `CC1(C)OCCN(c2ccc3c(c2)[nH]/c(=N\C(=O)c2cccc(C(F)(F)F)c2)n3CCCO)C1=O` [Example 223, (E)-3-(trifluoromethyl)-N-(5-(2,2-dimethyl-3-oxomorpholino)-1-(3-hydroxypropyl)-1H-benzo[d]imidazol-2(3H)-ylidene)benzamide]: the concentration for half-maximal inhibition (IC50) on IRAK1 and at IRAK4 was ≤ 0.1 µM each time.

For the compound `CN1CCCN(c2ccc3c(c2)[nH]/c(=N\C(=O)c2cccc(C(F)(F)F)c2)n3CCCO)C1=O` [Example 224, (E)-N-(1-(3-hydroxypropyl)-5-(3-methyl-2-oxotetrahydropyrimidin-1(2H)-yl)-1H-benzo[d]imidazol-2(3H)-ylidene)-3-(trifluoromethyl)benzamide], the half-inhibitory concentration (IC50) at IRAK1 is 0.1 to 1 µM; at IRAK4, ≤ 0.1 µM.

In the case of `CN1CCCN(c2ccc3c(c2)[nH]/c(=N\C(=O)c2cccc(C(F)F)c2)n3CCCO)C1=O` [Example 225, (E)-N-(1-(3-hydroxypropyl)-5-(3-methyl-2-oxotetrahydropyrimidin-1(2H)-yl)-1H-benzo[d]imidazol-2(3H)-ylidene)-3-(difluoromethyl)benzamide], the concentration for half-maximal inhibition (IC50) was 0.1 to 1 µM at IRAK1 and ≤ 0.1 µM on IRAK4.

On to `CC(F)(CO)Cn1/c(=N/C(=O)c2cccc(C(F)(F)F)c2)[nH]c2cc(N3CCCOC3=O)ccc21` (stereo not shown) [Example 226, (E)-N-(1-(2-fluoro-3-hydroxy-2-methylpropyl)-5-(2-oxo-1,3-oxazinan-3-yl)-1H-benzo[d]imidazol-2(3H)-ylidene)-3-(trifluoromethyl)benzamide], for which the IC50 on IRAK1 and at IRAK4 was ≤ 0.1 µM throughout.

For `O=C(/N=c1\[nH]c2cc(N3CCCOC3=O)ccc2n1CC1(F)COC1)c1cccc(C(F)F)c1` [Example 227, (E)-3-(difluoromethyl)-N-(1-((3-fluorooxetan-3-yl)methyl)-5-(2-oxo-1,3-oxazinan-3-yl)-1H-benzo[d]imidazol-2(3H)-ylidene)benzamide], the concentration for half-maximal inhibition (IC50) on IRAK1 was 0.1 to 1 µM; at IRAK4, ≤ 0.1 µM.
